Laboratory results as given in ChEMBL document CHEMBL1151757, “Synthesis, radiosynthesis, and biological evaluation of fluorine-18-labeled 2beta-carbo(fluoroalkoxy)-3beta-(3'-((Z)-2-haloethenyl)phenyl)nortropanes: candidate radioligands for in vivo imaging of the serotonin transporter with positron emission tomography” (J Med Chem, 2008).

How the values were obtained:
[1] = tested on: Pons; test: Drug uptake in anesthetized cynomolgus monkey brain pons after 1.5 mins postinjection; format: ADME, organism-based, Macaca fascicularis; conditions: in vivo, 0.025 h
[2] = Ratio of drug uptake in occipital lobe to cerebellum in anesthetized cynomolgus monkey after 12.5 mins postinjection; format: ADME, organism-based, Macaca fascicularis; conditions: in vivo
[3] = Drug uptake in anesthetized cynomolgus monkey brain frontal lobe after 35 mins postinjection; format: ADME, organism-based, Macaca fascicularis; conditions: in vivo
[4] = Octanol-water partition coefficient, log P at pH 7.4 by shake-flask method; format: physicochemical
[5] = Drug uptake in anesthetized cynomolgus monkey brain occipital lobe after 18.5 mins postinjection; format: ADME, organism-based, Macaca fascicularis; conditions: in vivo
[6] = tested on: Putamen; test: Drug uptake in anesthetized cynomolgus monkey brain putamen after 145 mins postinjection; format: ADME, organism-based, Macaca fascicularis; conditions: in vivo
[7] = tested on: Caudate; test: Drug uptake in anesthetized cynomolgus monkey brain caudate after 18.5 mins postinjection; format: ADME, organism-based, Macaca fascicularis, Caudate nucleus; conditions: in vivo
[8] = tested on: Medulla; test: Drug uptake in anesthetized cynomolgus monkey brain medulla after 3.5 mins postinjection; format: ADME, organism-based, Macaca fascicularis; conditions: in vivo
[9] = tested on: Putamen; test: Drug uptake in anesthetized cynomolgus monkey brain putamen after 65 mins postinjection; format: ADME, organism-based, Macaca fascicularis; parameters: unit not given here; conditions: in vivo
[10] = Ratio of drug uptake in putamen to cerebellum in anesthetized cynomolgus monkey after 75 mins postinjection; format: ADME, organism-based, Macaca fascicularis; conditions: in vivo, 1.25 h
[11] = tested on: Putamen; test: Drug uptake in anesthetized cynomolgus monkey brain putamen after 95 mins postinjection; format: ADME, organism-based, Macaca fascicularis; parameters: unit not given here; conditions: in vivo
[12] = tested on: Midbrain; test: Drug uptake in anesthetized cynomolgus monkey brain midbrain after 0.5 mins postinjection; format: ADME, organism-based, Macaca fascicularis; parameters: unit not given here; conditions: in vivo
[13] = tested on: Putamen; test: Drug uptake in anesthetized cynomolgus monkey brain putamen after 235 mins postinjection; format: ADME, organism-based, Macaca fascicularis; conditions: in vivo
[14] = tested on: Thalamus; test: Drug uptake in anesthetized cynomolgus monkey brain thalamus after 3.5 mins postinjection; format: ADME, organism-based, Macaca fascicularis; parameters: unit not given here; conditions: in vivo
[15] = tested on: Thalamus; test: Drug uptake in anesthetized cynomolgus monkey brain thalamus after 225 mins postinjection; format: ADME, organism-based, Macaca fascicularis; parameters: unit not given here; conditions: in vivo, 3.75 h
[16] = tested on: Putamen; test: Drug uptake in anesthetized cynomolgus monkey brain putamen after 12.5 mins postinjection; format: ADME, organism-based, Macaca fascicularis; parameters: unit not given here; conditions: in vivo
[17] = tested on: Midbrain; test: Drug uptake in anesthetized cynomolgus monkey brain midbrain after 15.5 mins postinjection; format: ADME, organism-based, Macaca fascicularis; parameters: unit not given here; conditions: in vivo
[18] = tested on: Putamen; test: Drug uptake in anesthetized cynomolgus monkey brain putamen after 35 mins postinjection; format: ADME, organism-based, Macaca fascicularis; parameters: unit not given here; conditions: in vivo
[19] = tested on: Thalamus; test: Drug uptake in anesthetized cynomolgus monkey brain thalamus after 75 mins postinjection; format: ADME, organism-based, Macaca fascicularis; parameters: unit not given here; conditions: in vivo, 1.25 h
[20] = Ratio of drug uptake in medulla to cerebellum in anesthetized cynomolgus monkey after 85 mins postinjection; format: ADME, organism-based, Macaca fascicularis; conditions: in vivo
[21] = Ratio of drug uptake in caudate to cerebellum in anesthetized cynomolgus monkey after 65 mins postinjection; format: ADME, organism-based, Macaca fascicularis; conditions: in vivo
[22] = tested on: Medulla; test: Drug uptake in anesthetized cynomolgus monkey brain medulla after 75 mins postinjection; format: ADME, organism-based, Macaca fascicularis; conditions: in vivo, 1.25 h
[23] = tested on: Caudate; test: Drug uptake in anesthetized cynomolgus monkey brain caudate after 225 mins postinjection; format: ADME, organism-based, Macaca fascicularis, Caudate nucleus; conditions: in vivo, 3.75 h
[24] = tested on: Midbrain; test: Drug uptake in anesthetized cynomolgus monkey brain midbrain after 75 mins postinjection; format: ADME, organism-based, Macaca fascicularis; parameters: unit not given here; conditions: in vivo, 1.25 h
[25] = tested on: Midbrain; test: Drug uptake in anesthetized cynomolgus monkey brain midbrain after 235 mins postinjection; format: ADME, organism-based, Macaca fascicularis; conditions: in vivo
[26] = tested on: Midbrain; test: Drug uptake in anesthetized cynomolgus monkey brain midbrain after 45 mins postinjection; format: ADME, organism-based, Macaca fascicularis; parameters: unit not given here; conditions: in vivo, 0.75 h
[27] = tested on: Medulla; test: Drug uptake in anesthetized cynomolgus monkey brain medulla after 12.5 mins postinjection; format: ADME, organism-based, Macaca fascicularis; conditions: in vivo
[28] = tested on: Midbrain; test: Drug uptake in anesthetized cynomolgus monkey brain midbrain after 12.5 mins postinjection; format: ADME, organism-based, Macaca fascicularis; parameters: unit not given here; conditions: in vivo
[29] = tested on: Thalamus; test: Drug uptake in anesthetized cynomolgus monkey brain thalamus after 45 mins postinjection; format: ADME, organism-based, Macaca fascicularis; parameters: unit not given here; conditions: in vivo, 0.75 h
[30] = tested on: Putamen; test: Drug uptake in anesthetized cynomolgus monkey brain putamen after 27.5 mins postinjection; format: ADME, organism-based, Macaca fascicularis; parameters: unit not given here; conditions: in vivo
[31] = tested on: Thalamus; test: Drug uptake in anesthetized cynomolgus monkey brain thalamus after 105 mins postinjection; format: ADME, organism-based, Macaca fascicularis; parameters: unit not given here; conditions: in vivo, 1.75 h
[32] = tested on: Caudate; test: Drug uptake in anesthetized cynomolgus monkey brain caudate after 105 mins postinjection; format: ADME, organism-based, Macaca fascicularis, Caudate nucleus; conditions: in vivo, 1.75 h
[33] = tested on: Thalamus; test: Drug uptake in anesthetized cynomolgus monkey brain thalamus after 85 mins postinjection; format: ADME, organism-based, Macaca fascicularis; parameters: unit not given here; conditions: in vivo
[34] = tested on: Putamen; test: Drug uptake in anesthetized cynomolgus monkey brain putamen after 9.5 mins postinjection; format: ADME, organism-based, Macaca fascicularis; parameters: unit not given here; conditions: in vivo
[35] = tested on: Caudate; test: Drug uptake in anesthetized cynomolgus monkey brain caudate after 95 mins postinjection; format: ADME, organism-based, Macaca fascicularis, Caudate nucleus; conditions: in vivo
[36] = Drug uptake in anesthetized cynomolgus monkey brain cerebellum after 215 mins postinjection; format: ADME, organism-based, Macaca fascicularis; conditions: in vivo
[37] = Drug uptake in anesthetized cynomolgus monkey brain cerebellum after 6.5 mins postinjection; format: ADME, organism-based, Macaca fascicularis; conditions: in vivo
[38] = tested on: Putamen; test: Drug uptake in anesthetized cynomolgus monkey brain putamen after 45 mins postinjection; format: ADME, organism-based, Macaca fascicularis; parameters: unit not given here; conditions: in vivo, 0.75 h
[39] = Ratio of drug uptake in midbrain to cerebellum in anesthetized cynomolgus monkey after 125 mins postinjection; format: ADME, organism-based, Macaca fascicularis; conditions: in vivo
[40] = tested on: Pons; test: Drug uptake in anesthetized cynomolgus monkey brain pons after 2.5 mins postinjection; format: ADME, organism-based, Macaca fascicularis; conditions: in vivo
[41] = tested on: Pons; test: Drug uptake in anesthetized cynomolgus monkey brain pons after 35 mins postinjection; format: ADME, organism-based, Macaca fascicularis; conditions: in vivo
[42] = tested on: Pons; test: Drug uptake in anesthetized cynomolgus monkey brain pons after 45 mins postinjection; format: ADME, organism-based, Macaca fascicularis; conditions: in vivo, 0.75 h
[43] = tested on: Midbrain; test: Drug uptake in anesthetized cynomolgus monkey brain midbrain after 1.5 mins postinjection; format: ADME, organism-based, Macaca fascicularis; parameters: unit not given here; conditions: in vivo, 0.025 h
[44] = tested on: Caudate; test: Drug uptake in anesthetized cynomolgus monkey brain caudate after 75 mins postinjection; format: ADME, organism-based, Macaca fascicularis, Caudate nucleus; conditions: in vivo, 1.25 h
[45] = tested on: Thalamus; test: Drug uptake in anesthetized cynomolgus monkey brain thalamus after 1.5 mins postinjection; format: ADME, organism-based, Macaca fascicularis; conditions: in vivo, 0.025 h
[46] = Drug uptake in anesthetized cynomolgus monkey brain frontal lobe after 27.5 mins postinjection; format: ADME, organism-based, Macaca fascicularis; conditions: in vivo

For `O=C(OCC[18F])C1C2CCC(CC1c1cccc(/C=C\I)c1)N2` (stereo unspecified), which Drug uptake [1] is on record?
Its Drug uptake is 0.09.

And the Ratio [2]?
The Ratio was 0.7.

And the Drug uptake [3]?
Its Drug uptake is 2.89.

What about the logD [4] of the same compound?
Its logD is 1.69.

And the Drug uptake [5]?
The Drug uptake was 2.84.

And the Drug uptake [6]?
Its Drug uptake is 3.27.

What about the Drug uptake [7] of the same compound?
Its Drug uptake is 3.07.

And the Drug uptake [8]?
Its Drug uptake is 1.08.

What about the Drug uptake [9] of the same compound?
The Drug uptake was 4.36.

What about the Ratio [10] of the same compound?
The Ratio was 1.4.

And the Drug uptake [11]?
Its Drug uptake is 4.02.

What about the Drug uptake [12] of the same compound?
Its Drug uptake is 0.

And the Drug uptake [13]?
Its Drug uptake is 2.35.

And the Drug uptake [14]?
The Drug uptake was 0.96.

And the Drug uptake [15]?
Its Drug uptake is 2.29.

What about the Drug uptake [16] of the same compound?
The Drug uptake was 3.33.

What about the Drug uptake [17] of the same compound?
Its Drug uptake is 4.07.

And the Drug uptake [18]?
The Drug uptake was 4.28.

What about the Drug uptake [19] of the same compound?
The Drug uptake was 4.16.

And the Ratio [20]?
Its Ratio is 1.3.

And the Ratio [21]?
Its Ratio is 1.1.

What about the Drug uptake [22] of the same compound?
Its Drug uptake is 3.78.

What about the Drug uptake [23] of the same compound?
Its Drug uptake is 2.02.

What about the Drug uptake [24] of the same compound?
Its Drug uptake is 4.76.

And the Drug uptake [25]?
Its Drug uptake is 2.94.

And the Drug uptake [26]?
The Drug uptake was 4.9.

What about the Drug uptake [27] of the same compound?
The Drug uptake was 3.37.

What about the Drug uptake [28] of the same compound?
The Drug uptake was 3.95.

And the Drug uptake [29]?
Its Drug uptake is 4.3.

And the Drug uptake [30]?
Its Drug uptake is 4.16.

What about the Drug uptake [31] of the same compound?
The Drug uptake was 3.74.

And the Drug uptake [32]?
The Drug uptake was 3.33.

What about the Drug uptake [33] of the same compound?
Its Drug uptake is 4.04.

And the Drug uptake [34]?
The Drug uptake was 3.07.

What about the Drug uptake [35] of the same compound?
Its Drug uptake is 3.39.

And the Drug uptake [36]?
The Drug uptake was 1.4.

What about the Drug uptake [37] of the same compound?
Its Drug uptake is 2.98.

And the Drug uptake [38]?
The Drug uptake was 4.41.

What about the Ratio [39] of the same compound?
The Ratio was 2.

What about the Drug uptake [40] of the same compound?
Its Drug uptake is 0.44.

What about the Drug uptake [41] of the same compound?
The Drug uptake was 3.29.

What about the Drug uptake [42] of the same compound?
The Drug uptake was 3.34.

And the Drug uptake [43]?
The Drug uptake was 0.11.

What about the Drug uptake [44] of the same compound?
Its Drug uptake is 3.62.

And the Drug uptake [45]?
Its Drug uptake is 0.09.

And the Drug uptake [46]?
The Drug uptake was 2.82.
